In patent publication US7507734B2, “Pyridazinone derivatives” (Aventis Pharma S.A., priority 2004, dated 2009):

What follows are compounds tested against CDK2/Cyclin E kinase (Homo sapiens, UniProt P24941) (assay: CDK2/Cyclin E Flashplate Assay: 96-well format). Details: streptavidin-coated flashplate, biotinylated-Rb peptide substrate 10 μM, 33PγATP/ATP 1 μM, CDK2/Cyclin E 20 nM, 30 minute at 30° C., 1% DMSO.
Type: biochemical
Method: Functional Measurements for Determination of IC50-Values
CDK2/Cyclin E Flashplate Assay: 96-Well Format
A 96-well streptavidin-coated flashplate is used to assay potency of compounds according formula (I) against CDK2/Cyclin E kinase. To carry out the assay, biotinylated-Rb peptide substrate (Biotin-[…]-OH) is solubilized at 1 mM in kinase buffer (Hepes 50 mM, NaCI 1 mM, MgCI2 5mM pH 7.5) as a stock solution conserved at −20° C. in aliquots of 110 μl. The day of the experiment, an aliquot of this solution is thawed and diluted to 14.3 μM in kinase buffer, containing 1 mM dithithreitol (DTT) added in the buffer extemporarily.
70 μl of this solution is added in each well of the flashplate in order to achieve a final concentration of 10 μM (100 μl reactionnal volume). Serial dilutions of inhibitors are prepared in DMSO from 10 mM stock solutions in order to achieve 1000 μM, 333.3 μM, 111.1 μM, 37.03 μM, 12.35 μM, 4.11 μM and 1.37 μM and all rediluted in kinase buffer+DTT in order to achieve 100 μM, 33.3 μM, 11.1 μM, 3.7 μM, 1.24 μM, 0.41 μM and 0.14 μM in DMSO 10% buffer (vol/vol). 10 μl of each of these solutions (or 10 μl of buffer+DTT for controls) are transferred to the testplate wells in order to achieve 10 μM, 3.33 μM, 1.11 μM, 0.37 μM, 0.12 μM, 0.04 μM and 0.01 μM as final concentrations, 1% DMSO (vol/vol). In each well, 10 μl of a solution of a mix of ^33PγATP/ATP are added in order to achieve 1 μM final concentration and a total of 1 μCi. The kinase reaction is initiated by addition of 10 μl of a solution at 200 nM of CDK2/Cyclin E in kinase buffer+DTT (or buffer+DTT for blanks) in order to achieve 20 nM final concentration. After addition of each reagent, the test-plate is shaken. The plates are incubated 30 minute at 30° C. with a shaking at 650 rpm. At the end of the incubation, the plates are washed 3 times with 300 μl of PBS (without calcium and magnesium) per well. The incorporation of ^33P to the peptide is measured by scintillation counting.

Row | SMILES | IC50 [µM]
1 | O=c1[nH]nc(-c2ccc(O)cc2)cc1-c1cc2ccccc2[nH]1 [Example 2, 6-(4-Hydroxy-phenyl)-4-(1H-indol-2-yl)-2H-pyridazin-3-one] | 0.033
2 | Cc1ccc2[nH]c(-c3cc(-c4ccncc4)n[nH]c3=O)cc2c1 [Example 14, 4-(5-Methyl-1H-indol-2-yl)-6-pyridin-4-yl-2H-pyridazin-3-one] | 0.026
3 | CCN(CC)CCOc1ccc2cc(-c3cc(-c4ccncc4)n[nH]c3=O)[nH]c2c1 [Example 20, 4-[6-(2-Diethylamino-ethoxy)-1H-indol-2-yl]-6-pyridin-4-yl-2H-pyridazin-3-one] | 0.02
4 | O=c1[nH]nc(-c2ccncc2)cc1-c1cc2ccc(OCc3ccccc3)cc2[nH]1 [Example 23, 4-(6-Benzyloxy-1H-indol-2-yl)-6-pyridin-4-yl-2H-pyridazin-3-one] | 0.048
5 | CN(C)CCCOc1ccc2[nH]c(-c3cc(-c4ccncc4)n[nH]c3=O)cc2c1 [Example 30, 4-[5-(3-Dimethylamino-propoxy)-1H-indol-2-yl]-6-pyridin-4-yl-2H-pyridazin-3-one] | 0.035
